Data reported in patent publication US20260151434A1, “COMPOSITIONS FOR THE TREATMENT OF DISEASE” (priority 2022, published 2026).
Bridge positions count the residues as written; N and C are the ends. Square brackets hold non-standard residues; d marks the D form. Triazole bridges read from a SMILES are 1,4-linked. Peptide text beside a SMILES is read from it. * marks the point of attachment. Benzoyl(3,5-(OH)2) = O=C(c1cc(O)cc(O)c1)*; Lys(N3) = [N-]=[N+]=NCCCC[C@H](N)C(=O)O; dPhe(4-F) = N[C@H](Cc1ccc(F)cc1)C(=O)O; Nle = CCCC[C@H](N)C(=O)O; Pra = C#CC[C@H](N)C(=O)O

Columns and labels:
[1] = Solubility comparison; format: physicochemical
From the text: The MCR agonists in vivo ocular permeability should allow for concentrations well exceeding EC50 values.

[2] = in vivo; details: rabbit, topical or ocular, 35 uL of 5 mg/ml solution per eye per dose
Procedure: (§1) Animals were acclimated to the study and, upon completion of the acclimation period, each animal was physically examined for determination of suitability for study participation. […] Animals were uniquely identified by corresponding cage card number and ear tag.
(§2) The designated peptide formulations (35 μL) were administered to the eye of each animal using a calibrated pipette. With the animal manually restrained, the upper eyelid of the eye was gently elevated to expose the cornea. Treatment was then applied to the cornea without contacting the eye with the pipette tip. The animal was then allowed to blink several times while still manually restrained to distribute the applied solution over the eye prior to being returned to the cage. Treatment was administered once daily (QD) or twice daily (BID) with approximately 8 hours between BID doses. Group 1 was administered a single dose, Group 2 received 4 doses, Group 3 received 8 doses. Samples were collected from 3 animals/group 30 min, 1 hr, 2 hr, 4 hr, and 8 hr post-last dose and from 2 animals/group 24 hours post-last dose.
(§3) Following euthanasia, eyes were enucleated, rinsed 2× with fresh ice-cold PBS, and dabbed dry with gauze. Aqueous humor was removed via a 27- or 30-gauge syringe, placed into a pre-weighted 2 mL polypropylene tube, reweighed, and snap frozen by immersion in liquid nitrogen. The cornea was harvested fresh from each eye, placed into a pre-weighted re-enforced 2 mL polypropylene tube, re-weighed and snap frozen in liquid nitrogen. The remaining ocular tissues were discarded. Ocular samples were stored −80° C. All samples were placed into individual vials and weighed. Aqueous humor and cornea samples were collected.

[3] = rabbit, in vivo
Procedure: as §1, §2, §3

[4] = system: corneal edema following descemetorhexis without endothethelial keratoplasty (DWEK) surgery in rabbits; assay: Corneal edema and wound healing after DWEK surgery, topical administration, rabbit; format: in vivo
Procedure: The objective of the present study was to evaluate the efficacy of the α-MSH peptide analogues in reducing corneal edema following descemetorhexis without endothethelial keratoplasty (DWEK) surgery in rabbits. […] Treatment was administered once (QD) or twice daily (BID) with approximately 6-8 hours between each BID dose.
The rabbits were subjected to a surgical procedure prior to administering topical treatment. The animals received buprenorphine (0.01-0.05 mg/kg SC) and were sedated immediately prior to the procedure with ketamine/xylazine cocktail (20-50/4-10 mg/kg IM). Aseptic precautions were taken for the surgical procedure. […] Sterile eyewash was then used to irrigate the ocular surface of the left eye. […] The animal's corneal epithelium was marked with a circular ring (5 mm) to create a template for resection of the host tissue. […] Descemet's membrane was scored peripherally using a reverse Terry-Sinskey hook, and then Descemet's membrane was peeled from the overlying stroma. Descemet's membrane was removed using forceps. Viscoelastic was removed by Irrigation Aspiration (IA) using balanced salt […] (BSS). One (1) ml of epinephrine 1:1000 and 0.5 ml of heparin (10,000 USP units/ml) was added to each 500 ml of irrigation solution (BSS) to facilitate pupil dilation, control inflammation, and reduce fibrin formation. […]

[5] = system: iPSC-derived ocular stem cells (ABC-101); assay: ROS assay after TBHP challenge of ocular stem cells; format: cell-based; details: 550 uM TBHP challenge, ROS at 3 hours and 4 hours, normalized to challenged wells without peptide, FIGS. 7-8
From the text: To assess the cytoprotective properties of the α-MSH peptide analogues in-vitro the present inventors tested their modulatory influence on reactive oxygen species (ROS) production and caspase activation in response to cellular stress. For these in-vitro challenge assays, the present inventors induced cellular stress using tert-Butyl hydroperoxide (TBHP) or calcium ionophore (A23187), compounds which are respectively known to induce oxidative and metabolic stress. Oxidative stress was correlated to an increase of ROS within cells. […] Within the current assays, the present inventors monitored ROS accumulation and subsequent caspase activity as readouts of cellular stress and eventual cell death. […] Both the ROS and caspase readouts were obtained by using commercially available reagent kits, which are based on a fluorescent indicator readout for each metric per the supplier's protocol. […] Since the assay uses a cell-permeable dye, the readout can be performed within live cells and results in a red fluorescent signal (Ex/Em=520/605 nm), which is correlated to the amount of accumulated ROS within each well. Within the present protocol, the inventors read ROS accumulation over time, starting from 1 hour after incubation up to 4 hours post-incubation. The ocular stem cells (ABC-101 cells) were challenged with 550 uM of TBHP and ROS production was assessed over several hours. […]

[6] = system: iPSC-derived ocular stem cells (ABC-101); assay: Apo-ONE Homogeneous Caspase-3/7 assay after A23187 challenge of ocular stem cells; format: cell-based
From the text: To assess the cytoprotective properties of the α-MSH peptide analogues in-vitro the present inventors tested their modulatory influence on reactive oxygen species (ROS) production and caspase activation in response to cellular stress. For these in-vitro challenge assays, the present inventors induced cellular stress using tert-Butyl hydroperoxide (TBHP) or calcium ionophore (A23187), compounds which are respectively known to induce oxidative and metabolic stress. Oxidative stress was correlated to an increase of ROS within cells. […] Within the current assays, the present inventors monitored ROS accumulation and subsequent caspase activity as readouts of cellular stress and eventual cell death. […] Both the ROS and caspase readouts were obtained by using commercially available reagent kits, which are based on a fluorescent indicator readout for each metric per the supplier's protocol. […] Readouts are routinely taken at 80 min and 150 min after incubation is started. Following a similar layout as with the ROS induction assay, the present inventors subsequently assessed induction of Caspase 3/7 activity following a 1 hour challenge with 2.5 uM A23187. Readings from Caspase 3/7 activation were taken at 80 and 150 minutes post-substrate addition and readouts were compared to non-supplemented controls.

With `CCCC[C@H](NC(C)=O)C(=O)N[C@H]1CCCCn2cc(nn2)C[C@@H](C(N)=O)NC(=O)[C@H](Cc2c[nH]c3ccccc23)NC(=O)[C@H](CCCNC(=N)N)NC(=O)[C@@H](Cc2ccccc2)NC(=O)[C@H](Cc2cnc[nH]2)NC1=O` [Peptide K110, Ac-Nle-[Lys(N3)-His-DPhe-Arg-Trp-Pra]-NH2] (Ac-[Nle][Lys(N3)]H[dF]RW[Pra]-NH2; triazole 2-7) as the compound, how does the Solubility [1] read?
The Solubility was over 5000 µg/mL.

Which results are given for `CCCC[C@H](NC(=O)c1cc(O)cc(O)c1)C(=O)N[C@H]1CCCCn2cc(nn2)C[C@@H](C(N)=O)NC(=O)[C@H](Cc2c[nH]c3ccccc23)NC(=O)[C@H](CCCNC(=N)N)NC(=O)[C@@H](Cc2ccc(F)cc2)NC(=O)[C@H](Cc2c[nH]cn2)NC1=O` [Peptide K173, HyBA-Nle-[Lys(N3)-His-Dphe(4-F)-Arg-Trp-Pra]-NH2] ({Benzoyl(3,5-(OH)2)}-[Nle][Lys(N3)]H[dPhe(4-F)]RW[Pra]-NH2; triazole 2-7)?
level at 24 h ([2]; K173 Concentrations (ng/mL) in Rabbit Aqueous Humor OD Sample): 3.34 ng/mL; level at 24 h ([2]; K173 Concentrations (ng/mL) in Rabbit Aqueous Humor OS Sample): 3.94 ng/mL; aqueous humor (AH) concentrations with repeated dosing [3]: increase with repeated dosing; levels after 24 hours [3]: measurable levels were detected after 24 hours in all dose groups; ocular surface retention and Tmax ([3]; topical or ocular): prolonged ocular surface retention and Tmax; wound healing (rate of wound closure, corneal flat mount) ([4]; 3 animals per group, FIGS. 12A, 12B): enhanced wound healing; corneal edema (corneal stromal thickness by OCT) ([4]; topical 1 mg/ml or 5 mg/ml QD or BID, FIG. 11): decreased corneal edema

With `CCCC[C@H](NC(=O)c1cc(O)cc(O)c1)C(=O)N[C@H]1CCCCn2cc(nn2)C[C@@H](C(N)=O)NC(=O)[C@H](Cc2c[nH]c3ccccc23)NC(=O)[C@H](CCCNC(=N)N)NC(=O)[C@@H](Cc2ccccc2)NC(=O)[C@H](Cc2c[nH]cn2)NC1=O` [Peptide K174, HyBA-Nle-[Lys(N3)-His-DPhe-Arg-Trp-Pra]-NH2] ({Benzoyl(3,5-(OH)2)}-[Nle][Lys(N3)]H[dF]RW[Pra]-NH2; triazole 2-7) as the compound, how does the “protection against ROS accumulation” value [5] read?
The value was “protective against ROS accumulation down to the low pM range”.

What about the “percent increase in caspase activation over control” value ([6]; 100 nM peptide, A23187 challenge, FIG. 9) of the same compound?
Its value is “lowest percent increase over control”.

What about the “Caspase 3/7 activity (protection against apoptosis induction)” value ([6]; 1 hour challenge with 2.5 uM A23187, readings at 80 and 150 minutes, vs non-supplemented controls, FIGS. 9-10) of the same compound?
Its value is “highest degree of protection against apoptosis induction”.
